Results published in patent US20250295815A1, “PORPHYRIN-HYDROPORPHYRIN COMPOUNDS, COMPOSITIONS COMPRISING THE SAME AND METHODS OF USE THEREOF” (North Carolina State University, priority 2021, published 2025).

Key:
Type in all cases: physicochemical
[1] = Dyad photophysical properties in toluene, excited at 405 nm; parameters: ext coeff (abs max B) / brightness (abs max): unit not given here; details: for ext coeff (405 nm) / brightness (405 nm): at 405 nm; for ext coeff (405 nm) / FWHM / QY (x405) / abs max B / abs max Qx / abs max Qy / ext coeff (abs max B) / em max: room temperature; for ext coeff (405 nm): in M-1 cm-1 (unit assumed); for FWHM: emission peak; for FWHM / QY (x405) / em max: excited at 405 nm; for QY (x405): fluorescence quantum yield; for brightness (405 nm) / brightness (abs max): molar absorption coefficient x fluorescence quantum yield; for brightness (405 nm): in M⁻¹cm⁻¹; for brightness (abs max): at abs max
Protocol: The photophysical properties of samples were tested in toluene at room temperature and excited at 405 nm.

[2] = Fluorescence emission spectra in toluene (FIG. 5-8); details: for Brightness (molar absorption coefficient×fluorescence quantum yield): in M⁻¹cm⁻¹; for residual porphyrin emission in fluorescence spectrum: toluene, room temperature, FIG. 5, FIG. 6
Protocol: Emission spectra were collected in toluene at room temperature. […] P5-C3 contains a more rigid linker between chlorin and porphyrin than in P3-C1, which results in greater spatial separation of the two components and lower energy transfer.
Brightness (molar absorption coefficient×fluorescence quantum yield): 84,700 (P3-C1), 13,900 (P5-C3).
Emission spectra were collected using 0.5 uM solutions in toluene. Brightness (molar absorption coefficient×fluorescence quantum yield): 19,900 (P11-BC3 meso), 45,100 (P11-BC1 beta).

[3] = Brightness of hydroporphyrin monomers vs. porphyrin-hydroporphyrin dyads at 405 nm excitation
Protocol: Brightness was calculated using an excitation wavelength of 405 nm for a hydroporphyrin monomer having an emission wavelength of approximately 660, 680, 715, or 800 nm and for a fluorescent compound including a porphyrin and a hydroporphyrin structurally similar to the hydroporphyrin monomer. Brightness was calculated as the product of the molar absorption coefficient at 405 nm and the fluorescence quantum yield in toluene at room temperature. Table 3 provides the emission wavelength of the hydroporphyrin monomer and the corresponding dyad, the brightness of the hydroporphyrin monomer excited at 405 nm, the brightness of the dyad excited at 405 nm, and the fold change in brightness of the hydroporphyrin monomer compared to the brightness of the dyad.

[4] = FIG. 7, same sample concentration

Row | ext coeff (405 nm) [1] | QY (x405) [1] | brightness (405 nm) [1] | brightness (abs max) [1] | abs max B [1] [nm] | abs max Qx [1] [nm] | abs max Qy [1] [nm] | ext coeff (abs max B) [1] | em max [1] [nm] | Brightness (molar absorption coefficient×fluorescence quantum yield) [2, 4] | residual porphyrin emission in fluorescence spectrum [2] | Structure (SMILES) | FWHM [1] [nm] | fold change ([3]; brightness of dyad vs. corresponding hydroporphyrin monomer, 405 nm) | FWHM ([3]; emission peak narrowness) [nm] | QY (x405) ([3]; fluorescence quantum yield in toluene at room temperature) | ext coeff (405 nm) ([3]; molar absorption coefficient at 405 nm, in M-1 cm-1 (unit assumed)) | brightness (405 nm) ([3]; product of molar absorption coefficient at 405 nm and fluorescence quantum yield, toluene, room temperature, in M⁻¹cm⁻¹) | abs max B ([3]; toluene, room temperature) [nm] | em max ([3]; toluene, room temperature) [nm] | Brightness (molar absorption coefficient×fluorescence quantum yield) ([2]; FIG. 8, 0.5 uM solutions in toluene, meso vs. beta linkage)
1 | 350,200 | 0.24 | 84,723 | 106,623 | 410 | 505 | 652 | 440,633 | 656 | 84,700 | no residual emission from the porphyrin | COC(=O)c1ccc(-c2c3nc(cc4[nH]c(cc5nc(cc6[nH]c2cc6-c2ccc(CNC(=O)c6ccc(-c7c8nc(cc9ccc([nH]9)c(-c9c(C)cc(C)cc9C)c9nc(cc%10ccc7[nH]%10)C=C9)C=C8)cc6)cc2)CC5(C)C)cc4-c2ccccc2)C=C3)cc1 [Dyad P3-C1] | 18 |  |  |  |  |  |  |  | 
2 | 171,800 | 0.08 | 13,934 | 17,413 | 409 | 504 | 657 | 214,700 | 659 | 13,900 | porphyrin emission is apparent | COC(=O)c1ccc(-c2c3nc(cc4ccc(cc5nc(cc6[nH]c2cc6C#Cc2ccc(CNC(=O)c6ccc(-c7c8nc(cc9ccc([nH]9)c(-c9c(C)cc(C)cc9C)c9nc(cc%10ccc7[nH]%10)C=C9)C=C8)cc6)cc2)CC5(C)C)[nH]4)C=C3)cc1 [Dyad P5-C3] |  |  |  |  |  |  |  |  | 

Row | Structure (SMILES) | ext coeff (405 nm) [1] | QY (x405) [1] | brightness (405 nm) [1] | brightness (abs max) [1] | abs max B [1] [nm] | abs max Qx [1] [nm] | abs max Qy [1] [nm] | ext coeff (abs max B) [1] | em max [1] [nm] | Brightness (molar absorption coefficient×fluorescence quantum yield) [2, 4] | residual porphyrin emission in fluorescence spectrum [2] | FWHM [1] [nm] | fold change ([3]; brightness of dyad vs. corresponding hydroporphyrin monomer, 405 nm) | FWHM ([3]; emission peak narrowness) [nm] | QY (x405) ([3]; fluorescence quantum yield in toluene at room temperature) | ext coeff (405 nm) ([3]; molar absorption coefficient at 405 nm, in M-1 cm-1 (unit assumed)) | brightness (405 nm) ([3]; product of molar absorption coefficient at 405 nm and fluorescence quantum yield, toluene, room temperature, in M⁻¹cm⁻¹) | abs max B ([3]; toluene, room temperature) [nm] | em max ([3]; toluene, room temperature) [nm] | Brightness (molar absorption coefficient×fluorescence quantum yield) ([2]; FIG. 8, 0.5 uM solutions in toluene, meso vs. beta linkage)
3 | COc1c2nc(cc3ccc([nH]3)c(-c3ccc(-c4c5nc(cc6ccc(cc7nc(cc8ccc4[nH]8)C=C7)[nH]6)C=C5)cc3)c3nc(cc4ccc1[nH]4)C(C)(C)C3)C(C)(C)C2 [Dyad P11-BC3] | 118,100 | 0.17 | 19,871 | 20,998 | 407 | 511 | 714 | 124,800 | 714 |  |  | 15 | 64.9 | 15 | 0.17 | 118,100 | 19,871 | 407 | 714 | 19,900
